# Measurements as given in patent publication US10370391B2, “Hydrogen peroxide-activable, anti-oxidant compounds and methods using same” (Beth Israel Deaconess Medical Center, Inc., priority 2014, dated 2019).
# Tests used:
# [1] = Stability of BRAP under acidic condition (1H NMR); assay type: physicochemical; conditions: pH 3.0, 72 hours of incubation
# Experimental: FIG. 2, comprising FIGS. 2A-2C, illustrates H2O2 scavenging effects of BRAP. FIG. 2A: Exemplary change of UV-absorbance of BRAP in the presence of H2O2. FIG. 2B: H2O2 scavenging by various concentrations of BRAP. H2O2 solution (10 μM) was mixed with HBA or BRAP for 1 min, and the chemiluminescent intensity was measured by adding diphenyl oxalate (10 mg) and rubrene (1 mg). *p<0.01, **p<0.001 relative to H2O2 only group (n=4/group). FIG. 2C: ^1H NMR spectrum of BRAP under acidic condition (pH=3.0) after 72 h.
# Without wishing to be limited by any theory, BRAP could scavenge H2O2 during its H2O2-mediated boronate oxidation. This possibility was investigated using peroxalate chemiluminescence. Peroxalate chemiluminescence has been used as a versatile tool for the detection of a variety of chemical species including fluorescent molecules and H2O2 because of its excellent specificity and simplicity (Hadd, et al., 1999, J. Chem. Educ. 76:1237; Lee, et al., 2011, Bull. Korean Chem. Soc. 32:2187). […] A majority of H2O2 was scavenged by the same concentration of BRAP within 1 minutes.
# [2] = Water solubility of isolated BRAP; assay type: physicochemical; conditions: white powder as obtained
# Source text: H2O2-activable anti-oxidant prodrug BRAP was synthesized by reacting (4-(hydroxymethyl)phenyl)boronic acid and 2-(hydroxymethyl)-2-methylpropane-1,3-diol at room temperature (FIG. 1A). BRAP was obtained as white water-soluble powder and its chemical structure was confirmed by ^1H NMR (FIG. 1B).
# [3] = system: mouse macrophage (RAW 264.7) cells stimulated by LPS; experiment: Intracellular ROS generation in LPS-stimulated macrophages (DCFH-DA, flow cytometry); assay type: cell-based; conditions: BRAP 0.25 mM, compared with 0.5 mM of HBA; LPS 1 μg/mL
# Experimental: (§1) FIG. 4, comprising FIGS. 4A-4F, is a set of graphs, bar graphs and images illustrating anti-oxidant and anti-inflammatory effects of BRAP in vitro. […] The generation of ROS was monitored by flow cytometry as an indicator of DCF fluorescence. Fluorescence was analyzed in 10,000 cells with excitation at 480 nm and emission at 530 nm. FIG. 4C: Protective effect of BRAP on H2O2— stimulated adult rat cardiomyocytes. V=vehicle, *<0.05 vs. V+H2O2 (n=4). […] (n=4/group).
# The anti-oxidant activities of BRAP were examined using mouse macrophage (RAW 264.7) and fibroblast (NIH/3T3) cells stimulated by LPS (lipopolysaccharide) (FIGS. 4A-4B). Intracellular ROS production in the stimulated cells was analyzed by flow cytometry using DCFH-DA ([…]-diacetate), which can be oxidized by the action of various intracellular oxidants such as H2O2 and hydroxyl radical to become fluorescent […] (DCF) (Kim, et al., 2011, Biomat. 32:3021; Cho, et al., 2012, Adv. Funct. Mat. 22:4038). Untreated cells have no significant DCF fluorescence.
# [4] = system: nitric oxide production in LPS-treated cells; experiment: Nitric oxide generation in LPS-treated cells (Griess reaction); assay type: cell-based; conditions: time and dose-dependent
# Experimental: as §1
# Nitric oxide is one of major sources of oxidative stress and a well-known pro-inflammatory mediator in the pathogenesis of inflammation (Lundberg, et al., 1997, Nature Medicine 3:30). The effects of BRAP on the generation of nitric oxide in LPS-treated cells were studied using a colorimetric assay based on the Griess reaction.
# [5] = system: mouse macrophage (RAW264.7) cells; experiment: MTT cytotoxicity assay, RAW264.7; assay type: cell-based; conditions: concentrations as high as 5 mM, 24 hours of incubation
# Experimental: FIG. 3, comprising FIGS. 3A-3B, is a set of bar graphs illustrating biocompatibility profiles of BRAP assessed by MTT assay in mouse macrophage (RAW264.7) cells (FIG. 3A) and ARVC (FIG. 3B). FIG. 19 is a bar graph showing the results of assessing cytotoxicity of BRAP-encapsulated PLGA microparticles against RAW264.7 cells in vitro. Cell viability was determined by the 3-(4,5-dimethylthiazil-2yl)-2,5-diphenyltetrazolium bromide (MTT) assay 24 hours after addition of BRAP-encapsulated PLGA microparticles to cells. “PB” represents BRAP-encapsulated PLGA microparticles. The percentages indicate the weight content of BRAP in the particles. Values shown represent mean±s.d. (n=4). […] 3-(4,5-Dimethylthiazil-2yl)-2,5-diphenyltetrazolium bromide (MTT) assay was performed to evaluate the cytotoxicity of BRAP. NIH 3T3 cells were cultured at a density of 1×10^5 cells/well in a 24 well plate, and RAW 264.7 cells and HEK cells were also cultured at a density of 2×10^5 cells/well in a 24 well plate. Cells were incubated for 24 hours to reach ˜80% confluency. Cells were treated with various amount of BRAP and incubated for 24 hours. […] After 10 min incubation, the absorbance at 570 nm was measured using a microplate reader (Biotek Instruments, Winooski, Vt.). The cell viability was determined by comparing the absorbance of BRAP treated cells that of control cells.
# [6] = system: H2O2-stimulated adult rat cardiomyocytes; experiment: Protection from H2O2-induced cell death in ARVC; assay type: cell-based; conditions: H2O2 0.25 mM; concentration dependent; vs vehicle
# Experimental: as §1
# Since cardiovascular disease is one of the most common and clinically relevant problems associated with oxidative stress injury, the effect of BRAP on cellular protection from the H2O2-induced cell death was further examined using ARVC in vitro.
# TNF-α = TNF-α level in LPS-stimulated macrophage cells; assay type: cell-based, mouse
# Experimental: as §1
# The anti-inflammatory effects of BRAP on LPS-stimulated cells were investigated by measuring the level of inflammatory cytokines such as TNF-α (tumor necrosis factor-alpha) and iNOS (inducible nitric oxide synthases) (FIGS. 4E-4F). […] These observations indicate that BRAP, as well as BRAP-encapsulated PLGA microparticles, is able to scavenge overproduced H2O2 and serve as a H2O2-activable anti-oxidant. Further, the enhanced anti-oxidant activity of BRAP is derived from the combined effects of H2O2-scavenging boronic esters and HBA generation after H2O2-mediated boronate oxidation.
smiles,measurement,setting,value
"CC1(CO)COB(c2ccc(CO)cc2)OC1 [BRAP, (4-(5-(hydroxymethyl)-5-methyl-1,3,2-dioxaborinan-2-yl)phenyl)methanol]",stability in acidic environment,[1],not influenced
same,water solubility,[2],water-soluble
same,inhibition of LPS-induced ROS generation,[3],significantly stronger inhibitory effects
same,inhibition of nitric oxide production,[4],inhibitory effects
same,cytotoxicity (MTT),[5],no significant cytotoxicity
same,protection from H2O2-induced cell death,[6],significant protection
same,TNF-α level,TNF-α,significantly suppressing
